Measured values taken from PubChem BioAssay AID248 (DTP/NCI, 2004).
Toxic doses and inconclusive results are not listed. Cut-off read from the data, not from the text of the source: active = T/C of 150% or more; inactive = T/C below 125%.

System: L1210 leukemia ip in BDF1 mice, survival T/C
Assay: NCI In Vivo Anticancer Drug Screen. Data for tumor model L1210 Leukemia (intraperitoneal) in B6D2F1 (BDF1) mice
Conditions: endpoint: mean survival time, higher = longer survival
Summary of the method: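 Transplanted-tumor mice were given test agent; controls received vehicle only. Survival readings from the two groups were divided (treated over control).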

[1] = dose: 100.0 mg/kg/injection, schedule: Q01DX009 (ip), vehicle: Klucel (hydroxypropylcellulose) (HPC)
[2] = dose: 200.0 mg/kg/injection, schedule: Q01DX009 (ip), vehicle: Klucel (hydroxypropylcellulose) (HPC)
[3] = dose: 400.0 mg/kg/injection, schedule: Q01DX009 (ip), vehicle: Klucel (hydroxypropylcellulose) (HPC)
[4] = dose: 100.0 mg/kg/injection, schedule: Q01DX001 (ip), vehicle: saline
[5] = dose: 200.0 mg/kg/injection, schedule: Q01DX001 (ip), vehicle: saline
[6] = dose: 400.0 mg/kg/injection, schedule: Q01DX001 (ip), vehicle: saline
[7] = dose: 100.0 mg/kg/injection, schedule: Q04DX003 (ip), vehicle: saline with Tween-80
[8] = dose: 200.0 mg/kg/injection, schedule: Q04DX003 (ip), vehicle: saline with Tween-80
[9] = dose: 400.0 mg/kg/injection, schedule: Q04DX003 (ip), vehicle: saline with Tween-80
[10] = dose: 50.0 mg/kg/injection, schedule: Q01DX001 (ip), vehicle: saline
[11] = dose: 100.0 mg/kg/injection, schedule: Q04DX003 (ip), vehicle: Klucel (hydroxypropylcellulose) (HPC)
[12] = dose: 125.0 mg/kg/injection, schedule: Q01DX Z (ip), vehicle: carboxymethylcellulose (CMC)
[13] = dose: 250.0 mg/kg/injection, schedule: Q01DX Z (ip), vehicle: carboxymethylcellulose (CMC)
[14] = dose: 500.0 mg/kg/injection, schedule: Q01DX Z (ip), vehicle: carboxymethylcellulose (CMC)

Measured: T/C

ClCc1cc(Cl)c(Cl)cc1Cl
inactive: dose: 25.0 mg/kg/injection, schedule: Q01DX009 (ip), vehicle: acetone 93 % of control | dose: 50.0 mg/kg/injection, schedule: Q01DX009 (ip), vehicle: acetone 92 % of control | dose: 100.0 mg/kg/injection, schedule: Q01DX009 (ip), vehicle: acetone 90 % of control | dose: 100.0 mg/kg/injection, schedule: Q04DX003 (ip), vehicle: acetone 100 % of control | dose: 150.0 mg/kg/injection, schedule: Q01DX009 (ip), vehicle: acetone 95 % of control

CC(C)(C)C12OC1C(=O)C1(C(C)(C)C)OC1C2=O (stereo not given)
inactive: [1] 97 % of control | [2] 103 % of control | [3] 105 % of control

Cn1cnc2[nH]c(Cl)nc(=S)c21
inactive: [4] 95 % of control | [5] 92 % of control | [6] 95 % of control

CCCCN(CC)C(=S)S[Te](SC(=S)N(CC)CCCC)(SC(=S)N(CC)CCCC)SC(=S)N(CC)CCCC
inactive: dose: 100.0 mg/kg/injection, schedule: Q01DX001 (ip), vehicle: carboxymethylcellulose (CMC) 104 % of control | dose: 200.0 mg/kg/injection, schedule: Q01DX001 (ip), vehicle: carboxymethylcellulose (CMC) 101 % of control | dose: 400.0 mg/kg/injection, schedule: Q01DX001 (ip), vehicle: carboxymethylcellulose (CMC) 89 % of control

NS(=O)(=O)CCCCCCN1C(=O)c2ccccc2C1=O
inactive: [7] 91 % of control | [8] 93 % of control | [9] 93 % of control

O=C1NC(=O)N2CCSC2(Cc2ccccc2)N1 (stereo not given)
inactive: [10] 108 % of control | [4] 96 % of control | [5] 96 % of control | [6] 100 % of control

CC(=O)OCC1OC(N2C(=O)/C(=C/c3c(Cl)cccc3Cl)SC2=S)C(OC(C)=O)C(OC(C)=O)C1OC(C)=O (stereo not given)
inactive: dose: 25.0 mg/kg/injection, schedule: Q01DX005 (ip), vehicle: other 103 % of control | dose: 50.0 mg/kg/injection, schedule: Q01DX005 (ip), vehicle: other 101 % of control | dose: 100.0 mg/kg/injection, schedule: Q01DX005 (ip), vehicle: other 104 % of control | dose: 200.0 mg/kg/injection, schedule: Q01DX005 (ip), vehicle: other 93 % of control

COCCNC1=C(F)C(=O)C(NCCOC)=C(F)C1=O
inactive: dose: 3.12 mg/kg/injection, schedule: Q04DX003 (ip), vehicle: Klucel (hydroxypropylcellulose) (HPC) 90 % of control | dose: 6.25 mg/kg/injection, schedule: Q04DX003 (ip), vehicle: Klucel (hydroxypropylcellulose) (HPC) 111 % of control | dose: 12.5 mg/kg/injection, schedule: Q04DX003 (ip), vehicle: Klucel (hydroxypropylcellulose) (HPC) 98 % of control | dose: 25.0 mg/kg/injection, schedule: Q04DX003 (ip), vehicle: Klucel (hydroxypropylcellulose) (HPC) 95 % of control | dose: 50.0 mg/kg/injection, schedule: Q04DX003 (ip), vehicle: Klucel (hydroxypropylcellulose) (HPC) 95 % of control | [11] 97 % of control | dose: 150.0 mg/kg/injection, schedule: Q04DX003 (ip), vehicle: Klucel (hydroxypropylcellulose) (HPC) 94 % of control | dose: 225.0 mg/kg/injection, schedule: Q04DX003 (ip), vehicle: Klucel (hydroxypropylcellulose) (HPC) 94 % of control | dose: 335.0 mg/kg/injection, schedule: Q04DX003 (ip), vehicle: Klucel (hydroxypropylcellulose) (HPC) 95 % of control

Cn1cc(C(=O)O)c(=O)c2ccc(/C=C/c3ccc([N+](=O)[O-])o3)nc21
inactive: [4] 92 % of control | [5] 101 % of control | [6] 103 % of control

c1ccc2nc3c(nc2c1)[nH]c1ccccc13
inactive: dose: 62.5 mg/kg/injection, schedule: Q01DX Z (ip), vehicle: carboxymethylcellulose (CMC) 94 % of control | [12] 100 % of control | [13] 95 % of control | [14] 91 % of control

O=C(Nc1cccc(C(=O)Nc2cccc(C3=NCCN3)c2)c1)Nc1cccc(C(=O)Nc2cccc(C3=NCCN3)c2)c1
inactive: dose: 15.0 mg/kg/injection, schedule: Q01DX Z (ip), vehicle: methylcellulose (MC) 96 % of control | dose: 30.0 mg/kg/injection, schedule: Q01DX Z (ip), vehicle: methylcellulose (MC) 96 % of control | dose: 60.0 mg/kg/injection, schedule: Q01DX Z (ip), vehicle: methylcellulose (MC) 94 % of control | dose: 120.0 mg/kg/injection, schedule: Q01DX Z (ip), vehicle: methylcellulose (MC) 98 % of control | [12] 110 % of control | [13] 105 % of control | [14] 96 % of control

C/C(=N\N)C(=O)c1ccccc1
inactive: dose: 100.0 mg/kg/injection, schedule: Q01DX001 (ip), vehicle: Klucel (hydroxypropylcellulose) (HPC) 103 % of control | [11] 98 % of control | dose: 200.0 mg/kg/injection, schedule: Q01DX001 (ip), vehicle: Klucel (hydroxypropylcellulose) (HPC) 93 % of control | dose: 200.0 mg/kg/injection, schedule: Q04DX003 (ip), vehicle: Klucel (hydroxypropylcellulose) (HPC) 94 % of control | dose: 400.0 mg/kg/injection, schedule: Q01DX001 (ip), vehicle: Klucel (hydroxypropylcellulose) (HPC) 101 % of control | dose: 400.0 mg/kg/injection, schedule: Q04DX003 (ip), vehicle: Klucel (hydroxypropylcellulose) (HPC) 96 % of control

CC(=O)ONC(=O)C(N)=O
inactive: [10] 95 % of control | [4] 101 % of control | [5] 95 % of control | [6] 103 % of control

CN(C)C(=O)Nc1cccc2nsnc12
inactive: [1] 106 % of control | [2] 104 % of control | [3] 102 % of control

Cc1ccccc1NC(=O)NCCBr
inactive: dose: 50.0 mg/kg/injection, schedule: Q01DX009 (ip), vehicle: saline with Tween-80 95 % of control | dose: 100.0 mg/kg/injection, schedule: Q01DX009 (ip), vehicle: saline with Tween-80 95 % of control

O=C(Nc1ccc(Cl)c(Cl)c1)Oc1ccc(Cl)cc1C(=O)Nc1ccccc1
inactive: [1] 100 % of control | [2] 100 % of control | [3] 87 % of control

CCCCOc1ccc(NC(N)=Nc2ccc(Cl)cc2)cc1
inactive: dose: 2.5 mg/kg/injection, schedule: Q01DX009 (ip), vehicle: saline with Tween-80 102 % of control | dose: 5.0 mg/kg/injection, schedule: Q01DX009 (ip), vehicle: saline with Tween-80 94 % of control | dose: 10.0 mg/kg/injection, schedule: Q01DX009 (ip), vehicle: saline with Tween-80 96 % of control | dose: 10.0 mg/kg/injection, schedule: Q04DX003 (ip), vehicle: saline with Tween-80 101 % of control | dose: 12.5 mg/kg/injection, schedule: Q01DX001 (ip), vehicle: carboxymethylcellulose (CMC) 109 % of control | dose: 20.0 mg/kg/injection, schedule: Q01DX009 (ip), vehicle: saline with Tween-80 103 % of control | dose: 20.0 mg/kg/injection, schedule: Q04DX003 (ip), vehicle: saline with Tween-80 92 % of control | dose: 25.0 mg/kg/injection, schedule: Q01DX001 (ip), vehicle: carboxymethylcellulose (CMC) 100 % of control | dose: 40.0 mg/kg/injection, schedule: Q04DX003 (ip), vehicle: saline with Tween-80 97 % of control | dose: 50.0 mg/kg/injection, schedule: Q01DX001 (ip), vehicle: carboxymethylcellulose (CMC) 100 % of control | dose: 80.0 mg/kg/injection, schedule: Q04DX003 (ip), vehicle: saline with Tween-80 98 % of control

COc1ccc(OC(=O)Nc2ccc(C)cc2[N+](=O)[O-])cc1
inactive: [7] 102 % of control | [8] 98 % of control | [9] 93 % of control
